{
  "source": "patent US11427575B2",
  "about": "“Antitumor compound for activating JWA gene and degrading HER2, preparation method thereof, and application thereof” (SIMCERE PHARMACEUTICAL CO., LTD., priority 2019, dated 2022)",
  "key": {"[1]": {"system": "promoter of JWA gene", "assay": "Luciferase reporter gene under control of JWA gene promoter in HBE cells (high-throughput screening)", "format": "cell-based, human", "conditions": "for fluorescence intensity of reporter gene: 48 h", "description": "High-throughput screening (HTS) was used to identify the human bronchial epithelial (HBE) cells stably transfected with a DNA construct with a luciferase gene under control of a 2,000 bp long promoter of JWA gene.\nFIG. 1 is a sequence containing the 2000 bp promoter sequence of JWA gene that was used for a luciferase reporter gene plasmid construction."}, "[2]": {"system": "HER2 protein", "assay": "Laser confocal immunofluorescence in HER2-positive breast cancer cells, HER2 level and localization", "format": "cell-based, human", "conditions": "immunofluorescence, 0, 1, 10 μM, 24 h", "description": "The cells were inoculated into a 35 mm glass bottom dish, treated with different concentrations (0, 1, and 10 μM) of JAC1 for 24 h, fixed with methanol for 15 min, washed three times with PBST, blocked with normal sheep serum for 1 h, and incubated in primary antibody overnight at 4° C. The cells were then washed three times with PBST, incubated in fluorescent secondary antibody and 4′,6-diamidino-2-phenylindole (DAPI), and photographed using a laser confocal scanning microscopy."}, "[3]": {"system": "JWA protein", "assay": "Western blot in HER2-positive breast cancer cells, JWA", "format": "cell-based, human", "conditions": "increasing concentration, 24 h", "description": "The cells in the logarithmic growth phase were routinely digested, and transferred into 6-well plates at the cell density of 40%-50%. The cells were incubated with different concentrations of JAC1 for 24 h, followed by an addition of 0.1 mL of Radioimmunoprecipitation Assay Butter (RIPA, containing 0.5% phenylmethylsulfonyl fluoride (PMSF)) for protein extraction. After centrifugation at 12,000×g for 15 min, the supernatant was collected, and brought to a determination of protein concentration and a boil. Protein electrophoresis was performed with 10% polyacrylamide gel. The protein was transferred into the gel wells for 40 μg protein per well, migrated at 60 V for 30 min, and 90 V for 1.5-2 h. After gel electrophoresis, the protein was transferred by wet method from gel to a PVDF membrane, and blocked with 5% skim milk at room temperature for 1-2 h. The membrane was washed with Tris-Buffered Saline and Tween 20 (TBST, containing 0.1% Tween 20) three times for 5 min each, and incubated in the corresponding primary antibody overnight at 4° C. The membrane was then washed with the TBST (containing 0.1% Tween 20) three times for 5 min each, incubated in the secondary antibody at room temperature for 1-2 h, and washed with the TBST (containing 0.1% Tween 20) eight times for 5 min each. […]"}, "[4]": {"system": "BT474 human breast cancer cells", "assay": "Tumor growth in nude mice subcutaneously transplanted with BT474 cells", "format": "in vivo, BALB/c nude mice", "conditions": "for tumor growth (tumor volume): vs blank control; for tumor weight / tumor weight/mouse body weight ratio: P<0.05", "description": "(§1) BT474 human breast cancer cells in the logarithmic growth phase were suspended in ice-cold suspension buffer for a final concentration of 5×10^6/100 μL, followed by subcutaneous transplantations of the suspended cells into BALB/c nude mice. When the tumor grown up to 75-125 mm^3, the BALB/c nude mice were randomly divided into five equal groups, including a blank control group (Mock), a solvent control group (Vehicle), a 50 mg/kg JAC1 treatment group, a 100 mg/kg JAC1 treatment group, and a positive control group treated with Pacilitaxel and Trastuzumab (TH). Dose and administration: JAC1 was injected intraperitoneally into mice once daily; the dosage of Trastuzumab was 10 mg/kg injected intraperitoneally twice a week; the dosage of Pacilitaxel was 20 mg/kg injected intraperitoneally once a week. From the day of administration, mouse body weights and tumor diameters were measured every other 2 days, and the tumor volume was calculated using an equation. When the mice reached a humane endpoint at which the tumor volume increased to 2500-3000 mm^3, the research based on the mouse models was terminated and the laboratory mice were anesthetized and euthanized in a timely manner to alleviate animal suffering and perform the statistical analysis."}, "[5]": {"system": "HER2 protein", "assay": "Western blot of subcutaneous BT474 tumors, HER2", "format": "in vivo, BALB/c nude mice", "conditions": "treatment group", "description": "as §1, with “analysis. […]” for “analysis.”"}, "[6]": {"conditions": "H&E staining, tumor-bearing nude mice", "description": "A model of nude mice subcutaneously transplanted with human breast cancer cells was built with reference to the method of Example 16. The laboratory mice that have been modeled were anesthetized and euthanized to observe and determine whether damage occurred to the major organs of laboratory mice. The major organs tissues from the laboratory mice, such as heart, liver, spleen, lung, kidney, and brain, were fixed in formalin solution using conventional methods. After paraffin embedding and tissue sectioning, the thick tissue sections were stained with H&E to observe whether the organ tissues were normal in morphology."}, "[7]": {"assay": "Serum biochemical indexes in tumor-bearing nude mice", "conditions": "particularly 100 mg/kg, vs blank control", "description": "A model of nude mice subcutaneously transplanted with human breast cancer cells was built with reference to the method of Example 16. The laboratory mice that have been modeled were anesthetized to determine whether damage occurred to the major organs in the mouse body. Whole blood was collected from the anesthetized mice, and the serum was separated and used to detect a change in the serum biochemical indexes using an automatic biochemistry analyzer."}, "[8]": {"system": "JWA protein", "conditions": "10 μM, 48 h", "description": "(§2) A HER2-positive BGC823 human gastric cancer cell line was established in which JWA gene was deleted using Crisp/cas9 technology. […] After protein extraction, western blotting technology was used to determine the expression levels of JWA and HER2 proteins in the wild-type cell line (JWA WT) and the JWA-knockout cell line (JWA KO)."}, "[9]": {"system": "HER2 protein", "assay": "Western blot in BGC823 gastric cancer cells (JWA WT and JWA KO), HER2", "format": "cell-based, human", "conditions": "10 μM, 48 h", "description": "as §2"}},
  "note": "Like-named read-outs stand apart in the source and are kept apart here.",
  "data": [
    {"compound": "COc1cccc2sc(Nc3nc4c(F)cccc4s3)nc12", "note": "[JAC1, 4-fluoro-N-(4-methoxybenzene (d)thiazole-2-group) benzene (d) thiazole-2-amine]", "values": [
      {"measurement": "fluorescence intensity of reporter gene", "setting": "[1]; 0.05 μg/mL", "result": 13560.00},
      {"measurement": "fluorescence intensity of reporter gene", "setting": "[1]; 0.10 μg/mL", "result": 16200.00},
      {"measurement": "fluorescence intensity of reporter gene", "setting": "[1]; 0.21 μg/mL", "result": 21975.00},
      {"measurement": "fluorescence intensity of reporter gene", "setting": "[1]; 0.41 μg/mL", "result": 28186.67},
      {"measurement": "fluorescence intensity of reporter gene", "setting": "[1]; 0.83 μg/mL", "result": 38760.00},
      {"measurement": "fluorescence intensity of reporter gene", "setting": "[1]; 1.65 μg/mL", "result": 54293.33},
      {"measurement": "fluorescence intensity of reporter gene", "setting": "[1]; 3.30 μg/mL", "result": 68080.00},
      {"measurement": "activation of JWA gene", "setting": "[1]; result in words", "result": "particularly significant effect on activation of JWA gene"},
      {"measurement": "HER2 protein level", "setting": "[2]", "result": "HER2 protein level reduced"},
      {"measurement": "cellular localization of HER2 protein", "setting": "[2]", "result": "no effect on the localization of HER2 protein in the cell membrane"},
      {"measurement": "JWA protein level", "setting": "[3]", "result": "JWA protein level increased"},
      {"measurement": "tumor growth (tumor volume)", "setting": "[4]; 50 mg/kg intraperitoneally once daily", "result": "obvious results at suppressing tumor growth"},
      {"measurement": "Tumor growth inhibition rate", "setting": "[4]; 50 mg/kg ip once daily", "result": 31.22, "unit": "%"},
      {"measurement": "tumor weight", "setting": "[4]; 50 mg/kg ip once daily", "result": "reduced"},
      {"measurement": "tumor weight/mouse body weight ratio", "setting": "[4]; 50 mg/kg ip once daily", "result": "decreased"},
      {"measurement": "tumor growth (tumor volume)", "setting": "[4]; 100 mg/kg intraperitoneally once daily", "result": "obvious results at suppressing tumor growth"},
      {"measurement": "Tumor growth inhibition rate", "setting": "[4]; 100 mg/kg ip once daily", "result": 46.21, "unit": "%"},
      {"measurement": "tumor weight", "setting": "[4]; 100 mg/kg ip once daily", "result": "reduced"},
      {"measurement": "tumor weight/mouse body weight ratio", "setting": "[4]; 100 mg/kg ip once daily", "result": "decreased"},
      {"measurement": "HER2 protein level in tumor", "setting": "[5]", "result": "repressed significantly"},
      {"measurement": "morphology of major organs (heart, liver, spleen, lung, kidney, brain)", "setting": "[6]", "result": "no obvious anomalies were observed"},
      {"measurement": "alanine transaminase (ALT)", "setting": "[7]", "result": "significant decreases"},
      {"measurement": "aspartate transaminase (AST)", "setting": "[7]", "result": "significant decreases"},
      {"measurement": "creatine kinase (CK)", "setting": "[7]", "result": "significant decreases"},
      {"measurement": "creatine kinase isoenzyme (CKMB)", "setting": "[7]", "result": "significant decreases"},
      {"measurement": "superoxide dismutase (SOD)", "setting": "[7]", "result": "significantly increased"},
      {"measurement": "triglyceride (TG)", "setting": "[7]", "result": "significant decreases"},
      {"measurement": "JWA expression level", "setting": "[8]; BGC823 JWA KO", "result": "no effect"},
      {"measurement": "JWA protein level", "setting": "[8]; BGC823 JWA WT", "result": "significantly increase JWA protein level"},
      {"measurement": "HER2 expression level", "setting": "[9]; BGC823 JWA KO", "result": "no effect"},
      {"measurement": "HER2 expression", "setting": "[9]; BGC823 JWA WT", "result": "repress HER2 expression"}
    ]}
  ]
}
